Earlier results as cited in patent US6641611B2, “Therapeutic coating for an intravascular implant” (priority 2001, dated 2003).
Like-named read-outs stand apart in the source and are kept apart here.

Experiments:
[1] = for diabetes: high doses

- diabetes ([1]; nonhuman primates): not
- diabetes ([1]; rats): causes diabetes
- increase in rapamycin levels in combination compared to rapamycin alone (monkeys, fixed doses of both drugs in combination): 5 fold
Compound: CO[C@H]1C[C@@H]2CC[C@@H](C)[C@@](O)(O2)C(=O)C(=O)N2CCCC[C@H]2C(=O)O[C@H]([C@H](C)C[C@@H]2CC[C@@H](O)[C@H](OC)C2)CC(=O)[C@H](C)/C=C(\C)[C@@H](O)[C@@H](OC)C(=O)[C@H](C)C[C@H](C)/C=C/C=C/C=C/1C [rapamycin]
- body weight effect ([1]; several species): weight loss
- tolerability (fixed high dose monotherapy): well tolerated
